Here are results for 6 compounds from patent publication US20240228572A1 (i2o Therapeutics, Inc., priority 2020, published 2024).

For assay [1], the target named is T1, human GLP-1 receptor (GLP-1R) (Homo sapiens, UniProt P43220).
T1 construct: expressed in transfected cells
Description: cAMP accumulation assay, CHO-K1 cells stably expressing human GLP-1R. In kind it is cell-based. As to conditions: cAMP accumulation, mean pEC50, Table 10.

For assay [2], the target named is T2, human Glucagon receptor (GCGR) (Homo sapiens, UniProt P47871).
T2 construct: A cDNA fragment encoding the full-length open reading frame of the human GCGR; expressed in transfected cells; host or cells: CHO-K1, pcDNA3.1+, Lipofectamine 2000
T2 sequence (P47871 26-477): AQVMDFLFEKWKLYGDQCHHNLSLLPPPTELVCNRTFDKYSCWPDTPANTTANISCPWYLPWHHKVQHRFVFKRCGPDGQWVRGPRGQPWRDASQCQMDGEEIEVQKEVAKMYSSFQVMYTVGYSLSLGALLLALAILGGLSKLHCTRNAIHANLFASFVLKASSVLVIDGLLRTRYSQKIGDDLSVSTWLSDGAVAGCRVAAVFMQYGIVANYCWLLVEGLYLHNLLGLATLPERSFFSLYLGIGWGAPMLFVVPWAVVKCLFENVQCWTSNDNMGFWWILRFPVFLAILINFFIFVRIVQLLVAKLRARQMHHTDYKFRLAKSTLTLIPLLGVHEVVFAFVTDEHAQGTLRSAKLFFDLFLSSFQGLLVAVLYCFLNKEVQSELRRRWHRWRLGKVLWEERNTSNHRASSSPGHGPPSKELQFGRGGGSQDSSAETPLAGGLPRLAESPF
The experiment in a line: cAMP accumulation assay, CHO-K1 cells expressing human GCGR. The class given is cell-based. The settings on record: mean pEC50, Table 10. (In general: cAMP levels reflect the balance of adenylyl cyclase and phosphodiesterase activity.)

*1 amine or outer side, *2 acyl side, *3 side chain or, on linkers, in order; H or OH if unused. Where a SMILES comes first, the peptide text is derived from it. Bridges are numbered along the chain shown (N, C = ends). Side-chain parts run from the residue outwards. [ ]: non-standard residue; d: D form. The star is where a group is joined. C20 diacid = O=C(O)CCCCCCCCCCCCCCCCCCC(=O)*; γGlu = O=C(O)[C@H](CCC(=O)[*:2])N[*:1]; AEEA = NCCOCCOCC(=O)O; Aib = CC(C)(N)C(=O)O

A word on the EC50: it is the midpoint of the concentration-response curve. A high value points to a less potent agent.

T1 sequence (P43220 24-463): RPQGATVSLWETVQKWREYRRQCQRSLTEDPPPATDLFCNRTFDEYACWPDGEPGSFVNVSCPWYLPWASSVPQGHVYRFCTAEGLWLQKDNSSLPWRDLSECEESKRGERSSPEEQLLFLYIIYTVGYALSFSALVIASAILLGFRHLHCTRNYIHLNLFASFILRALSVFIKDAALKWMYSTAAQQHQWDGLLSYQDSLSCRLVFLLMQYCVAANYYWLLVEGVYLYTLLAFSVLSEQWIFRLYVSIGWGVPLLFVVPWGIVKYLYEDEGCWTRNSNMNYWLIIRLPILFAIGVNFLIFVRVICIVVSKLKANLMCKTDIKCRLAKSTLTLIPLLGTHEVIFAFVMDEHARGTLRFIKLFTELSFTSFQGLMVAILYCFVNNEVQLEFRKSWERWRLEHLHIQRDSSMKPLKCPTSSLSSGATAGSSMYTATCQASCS

As for `CC(C)C[C@H](NC(=O)[C@H](Cc1ccc(O)cc1)NC(=O)[C@H](CCCCN)NC(=O)[C@H](CO)NC(=O)[C@H](Cc1ccc(O)cc1)NC(=O)[C@H](CC(=O)O)NC(=O)[C@H](CO)NC(=O)[C@@H](NC(=O)[C@H](Cc1ccccc1)NC(=O)[C@@H](NC(=O)CNC(=O)[C@H](Cc1c[nH]cn1)NC(=O)[C@H](CO)NC(=O)[C@@H](N)Cc1ccc(O)cc1)[C@@H](C)O)[C@@H](C)O)C(=O)N[C@@H](CC(=O)O)C(=O)N[C@@H](CCCCNC(=O)CC[C@H](NC(=O)CC[C@H](NC(=O)COCCOCCNC(=O)CCCCCCCCCCCCCCCCCCC(=O)O)C(=O)O)C(=O)O)C(=O)N[C@@H](CCCCN)C(=O)N[C@@H](Cc1ccc(O)cc1)C(=O)N[C@@H](C)C(=O)N[C@@H](CCC(N)=O)C(=O)N[C@@H](CCC(=O)O)C(=O)N[C@@H](Cc1ccccc1)C(=O)NC(C)(C)C(=O)N[C@@H](CCCCN)C(=O)N[C@@H](Cc1c[nH]c2ccccc12)C(=O)N[C@@H](CC(C)C)C(=O)N[C@@H](CCC(=O)O)C(=O)N[C@@H](CC(=O)O)C(=O)N[C@@H](CCC(=O)O)C(=O)N1CCC[C@H]1C(=O)N[C@@H](CO)C(=O)N[C@@H](CO)C(=O)NCC(=O)N[C@@H](C)C(=O)N1CCC[C@H]1C(=O)N1CCC[C@H]1C(=O)N1CCC[C@H]1C(=O)N[C@@H](CO)C(=O)O` [Compound A9] (H-YSHGTFTSDYSKYLDK([γGlu-γGlu-AEEA-C20 diacid])KYAQEF[Aib]KWLEDEPSSGAPPPS-OH; N-terminus assumed), the concentration for a half-maximal effect (EC50) was greater than 1 nM in assay [1] and 0.0251 nM in assay [2].
The matching figures for `CC(C)C[C@H](NC(=O)[C@H](Cc1ccc(O)cc1)NC(=O)[C@H](CCCCN)NC(=O)[C@H](CO)NC(=O)[C@H](Cc1ccc(O)cc1)NC(=O)[C@H](CC(=O)O)NC(=O)[C@H](CO)NC(=O)[C@@H](NC(=O)[C@H](Cc1ccccc1)NC(=O)[C@@H](NC(=O)CNC(=O)[C@H](Cc1c[nH]cn1)NC(=O)[C@H](CO)NC(=O)[C@@H](N)Cc1ccc(O)cc1)[C@@H](C)O)[C@@H](C)O)C(=O)N[C@@H](CC(=O)O)C(=O)N[C@@H](CCCCNC(=O)CC[C@H](NC(=O)CC[C@H](NC(=O)COCCOCCNC(=O)CCCCCCCCCCCCCCCCCCC(=O)O)C(=O)O)C(=O)O)C(=O)N[C@@H](CCCCN)C(=O)N[C@@H](Cc1ccc(O)cc1)C(=O)N[C@@H](C)C(=O)N[C@@H](CCC(N)=O)C(=O)N[C@@H](CCC(=O)O)C(=O)N[C@@H](Cc1ccccc1)C(=O)NC(C)(C)C(=O)N[C@@H](CO)C(=O)N[C@@H](Cc1c[nH]c2ccccc12)C(=O)N[C@@H](CC(C)C)C(=O)N[C@@H](CCC(=O)O)C(=O)N[C@@H](CC(=O)O)C(=O)N[C@@H](CCC(=O)O)C(=O)N1CCC[C@H]1C(=O)N[C@@H](CO)C(=O)N[C@@H](CO)C(=O)NCC(=O)N[C@@H](C)C(=O)N1CCC[C@H]1C(=O)N1CCC[C@H]1C(=O)N1CCC[C@H]1C(=O)N[C@@H](CO)C(=O)O` [Compound A10] (H-YSHGTFTSDYSKYLDK([γGlu-γGlu-AEEA-C20 diacid])KYAQEF[Aib]SWLEDEPSSGAPPPS-OH; N-terminus assumed): greater than 1 nM and 0.0398 nM.
The matching figures for `CC(C)C[C@H](NC(=O)[C@H](Cc1ccc(O)cc1)NC(=O)[C@H](CCCCN)NC(=O)[C@H](CO)NC(=O)[C@H](Cc1ccc(O)cc1)NC(=O)[C@H](CC(=O)O)NC(=O)[C@H](CO)NC(=O)[C@@H](NC(=O)[C@H](Cc1ccccc1)NC(=O)[C@@H](NC(=O)CNC(=O)[C@H](Cc1c[nH]cn1)NC(=O)[C@H](CO)NC(=O)[C@@H](N)Cc1ccc(O)cc1)[C@@H](C)O)[C@@H](C)O)C(=O)N[C@@H](CC(=O)O)C(=O)N[C@@H](CCCCNC(=O)CC[C@H](NC(=O)CC[C@H](NC(=O)COCCOCCNC(=O)CCCCCCCCCCCCCCCCCCC(=O)O)C(=O)O)C(=O)O)C(=O)N[C@@H](CCCCN)C(=O)N[C@@H](Cc1ccc(O)cc1)C(=O)N[C@@H](C)C(=O)N[C@H]1CCC(=O)NCCCC[C@@H](C(=O)N[C@@H](Cc2c[nH]c3ccccc23)C(=O)N[C@@H](CC(C)C)C(=O)N[C@@H](CCC(=O)O)C(=O)N[C@@H](CC(=O)O)C(=O)N[C@@H](CCC(=O)O)C(N)=O)NC(=O)[C@H](C(C)C)NC(=O)[C@H](Cc2ccccc2)NC(=O)[C@H](CCCCN)NC1=O` [Compound A35] (H-YSHGTFTSDYSKYLDK([γGlu-γGlu-AEEA-C20 diacid])KYAEKFVKWLEDE-NH2; lactam 20-24; N-terminus assumed): greater than 1 nM and 0.00126 nM.
In the case of `CC(C)C[C@H](NC(=O)[C@H](Cc1ccc(O)cc1)NC(=O)[C@H](CCCCN)NC(=O)[C@H](CO)NC(=O)[C@H](Cc1ccc(O)cc1)NC(=O)[C@H](CC(=O)O)NC(=O)[C@H](CO)NC(=O)[C@@H](NC(=O)[C@H](Cc1ccccc1)NC(=O)[C@@H](NC(=O)CNC(=O)[C@H](Cc1c[nH]cn1)NC(=O)[C@H](CO)NC(=O)[C@@H](N)Cc1ccc(O)cc1)[C@@H](C)O)[C@@H](C)O)C(=O)N[C@@H](CC(=O)O)C(=O)N[C@@H](CCCCNC(=O)CC[C@H](NC(=O)CC[C@H](NC(=O)COCCOCCNC(=O)CCCCCCCCCCCCCCCCCCC(=O)O)C(=O)O)C(=O)O)C(=O)N[C@@H](CCCCN)C(=O)N[C@@H](Cc1ccc(O)cc1)C(=O)N[C@@H](C)C(=O)N[C@H]1CCC(=O)NCCCC[C@@H](C(=O)N[C@@H](Cc2c[nH]c3ccccc23)C(=O)N[C@@H](CC(C)C)C(=O)N[C@@H](CCC(=O)O)C(=O)N[C@@H](CCCCN)C(=O)N[C@@H](CCC(=O)O)C(=O)N2CCC[C@H]2C(=O)N[C@@H](CO)C(=O)N[C@@H](CO)C(=O)NCC(=O)N[C@@H](C)C(=O)N2CCC[C@H]2C(=O)N2CCC[C@H]2C(=O)N2CCC[C@H]2C(=O)N[C@@H](CO)C(=O)O)NC(=O)[C@H](C(C)C)NC(=O)[C@H](Cc2ccccc2)NC(=O)[C@H](CCCCN)NC1=O` [Compound A26] (H-YSHGTFTSDYSKYLDK([γGlu-γGlu-AEEA-C20 diacid])KYAEKFVKWLEKEPSSGAPPPS-OH; lactam 20-24; N-terminus assumed), the EC50 in assay [1] was greater than 1 nM; in assay [2], 0.00794 nM.
For `CC(C)C[C@H](NC(=O)[C@H](Cc1ccc(O)cc1)NC(=O)[C@H](CCCCN)NC(=O)[C@H](CO)NC(=O)[C@H](Cc1ccc(O)cc1)NC(=O)[C@H](CC(=O)O)NC(=O)[C@H](CO)NC(=O)[C@@H](NC(=O)[C@H](Cc1ccccc1)NC(=O)[C@@H](NC(=O)CNC(=O)[C@H](Cc1c[nH]cn1)NC(=O)[C@H](CO)NC(=O)[C@@H](N)Cc1ccc(O)cc1)[C@@H](C)O)[C@@H](C)O)C(=O)N[C@@H](CC(=O)O)C(=O)N[C@@H](CCCCNC(=O)CC[C@H](NC(=O)CC[C@H](NC(=O)COCCOCCNC(=O)CCCCCCCCCCCCCCCCCCC(=O)O)C(=O)O)C(=O)O)C(=O)N[C@@H](CCCCN)C(=O)N[C@@H](Cc1ccc(O)cc1)C(=O)N[C@@H](C)C(=O)N[C@@H](CCC(N)=O)C(=O)N[C@@H](CCC(=O)O)C(=O)N[C@@H](Cc1ccccc1)C(=O)NC(C)(C)C(=O)N[C@@H](CCC(N)=O)C(=O)N[C@@H](Cc1c[nH]c2ccccc12)C(=O)N[C@@H](CC(C)C)C(=O)N[C@@H](CCC(=O)O)C(=O)N[C@@H](CC(=O)O)C(=O)N[C@@H](CCC(=O)O)C(=O)N1CCC[C@H]1C(=O)N[C@@H](CO)C(=O)N[C@@H](CO)C(=O)NCC(=O)N[C@@H](C)C(=O)N1CCC[C@H]1C(=O)N1CCC[C@H]1C(=O)N1CCC[C@H]1C(=O)N[C@@H](CO)C(=O)O` [Compound A7] (H-YSHGTFTSDYSKYLDK([γGlu-γGlu-AEEA-C20 diacid])KYAQEF[Aib]QWLEDEPSSGAPPPS-OH; N-terminus assumed), in that order: greater than 1 nM and 0.02 nM.
The matching figures for `CC(C)C[C@H](NC(=O)[C@H](Cc1ccc(O)cc1)NC(=O)[C@H](CCCCN)NC(=O)[C@H](CO)NC(=O)[C@H](Cc1ccc(O)cc1)NC(=O)[C@H](CC(=O)O)NC(=O)[C@H](CO)NC(=O)[C@@H](NC(=O)[C@H](Cc1ccccc1)NC(=O)[C@@H](NC(=O)CNC(=O)[C@H](Cc1c[nH]cn1)NC(=O)[C@H](CO)NC(=O)[C@@H](N)Cc1ccc(O)cc1)[C@@H](C)O)[C@@H](C)O)C(=O)N[C@@H](CC(=O)O)C(=O)N[C@@H](CCCCNC(=O)CC[C@H](NC(=O)CC[C@H](NC(=O)COCCOCCNC(=O)CCCCCCCCCCCCCCCCCCC(=O)O)C(=O)O)C(=O)O)C(=O)N[C@@H](CCCCN)C(=O)N[C@@H](Cc1ccc(O)cc1)C(=O)N[C@@H](C)C(=O)N[C@H]1CCC(=O)NCCCC[C@@H](C(=O)N[C@@H](Cc2c[nH]c3ccccc23)C(=O)N[C@@H](CC(C)C)C(=O)N[C@@H](CCC(=O)O)C(=O)N[C@@H](CC(=O)O)C(=O)N[C@@H](CCC(=O)O)C(=O)N2CCC[C@H]2C(=O)N[C@@H](CO)C(=O)N[C@@H](CO)C(=O)NCC(=O)N[C@@H](CCC(=O)O)C(=O)N2CCC[C@H]2C(=O)N2CCC[C@H]2C(=O)N2CCC[C@H]2C(=O)N[C@@H](CO)C(=O)O)NC(=O)[C@H](C(C)C)NC(=O)[C@H](Cc2ccccc2)NC(=O)[C@H](CCCCN)NC1=O` [Compound A31] (H-YSHGTFTSDYSKYLDK([γGlu-γGlu-AEEA-C20 diacid])KYAEKFVKWLEDEPSSGEPPPS-OH; lactam 20-24; N-terminus assumed): greater than 1 nM and 0.00126 nM.
